# Laboratory results taken from ChEMBL document CHEMBL1201861, “Genomics of Drug Sensitity in Cancer screening data, Wellcome Trust Sanger Institute”.
# Tests used:
# Assay in all cases: cells
# HCC2157 = type: functional, cell-based, Homo sapiens; details: Homo sapiens, HCC2157;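 note: growth inhibition of the cancer cell line, read out as cell viability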
# Description: SANGER: Inhibition of human HCC2157 cell growth in a cell viability assay.
# Ramos-2G6-4C10 = type: functional, cell-based, Homo sapiens; details: Homo sapiens, Ramos-2G6-4C10;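 note: growth inhibition of the cell line, measured by a cell viability read-out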
# Description: SANGER: Inhibition of human Ramos-2G6-4C10 cell growth in a cell viability assay.
# CCRF-CEM = type: functional, cell-based, Homo sapiens; details: Homo sapiens, CCRF-CEM;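 note: inhibition of CCRF-CEM cell growth, measured by a cell viability assay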
# Description: SANGER: Inhibition of human CCRF-CEM cell growth in a cell viability assay.
# NOMO-1 = type: functional, cell-based, Homo sapiens; details: Homo sapiens, NOMO-1;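 note: growth inhibition of human NOMO-1 cells measured by a cell viability assay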
# Description: SANGER: Inhibition of human NOMO-1 cell growth in a cell viability assay.
# NOS-1 = type: functional, cell-based, Homo sapiens; details: Homo sapiens, NOS-1;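 note: growth inhibition of the human NOS-1 cell line, read out with a cell viability assay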
# Description: SANGER: Inhibition of human NOS-1 cell growth in a cell viability assay.
# ES6 = type: functional, cell-based; details: Homo sapiens;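 note: growth inhibition of human ES6 cells, read out with a cell viability assay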
# Description: SANGER: Inhibition of human ES6 cell growth in a cell viability assay.
# SNU1 = type: functional, cell-based, Homo sapiens; details: Homo sapiens, SNU1;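 note: growth inhibition of human NCI-SNU-1 cells, measured with a cell viability assay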
# Description: SANGER: Inhibition of human NCI-SNU-1 cell growth in a cell viability assay.
# LOX IMVI = type: functional, cell-based, Homo sapiens; details: Homo sapiens, LOX IMVI
# Description: SANGER: Inhibition of human LOXIMVI cell growth in a cell viability assay.
# TE-9 = type: functional, cell-based, Homo sapiens; details: Homo sapiens, TE-9;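 note: cell growth inhibition, measured with a cell viability readout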
# Description: SANGER: Inhibition of human TE-9 cell growth in a cell viability assay.
# QIMR-WIL = type: functional, cell-based, Homo sapiens; details: Homo sapiens, QIMR-WIL;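 note: growth inhibition of QIMR-WIL cells, read out with a cell viability assay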
# Description: SANGER: Inhibition of human QIMR-WIL cell growth in a cell viability assay.
# KLE = type: functional, cell-based; details: Homo sapiens;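 note: growth inhibition of human KLE cells, read out with a cell viability assay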
# Description: SANGER: Inhibition of human KLE cell growth in a cell viability assay.
# OS-RC-2 = type: functional, cell-based, Homo sapiens; details: Homo sapiens, OS-RC-2;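 note: growth inhibition of human OS-RC-2 cells, measured by a cell viability assay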
# Description: SANGER: Inhibition of human OS-RC-2 cell growth in a cell viability assay.
# Mo = type: functional, cell-based, Homo sapiens; details: Homo sapiens, Mo
# Description: SANGER: Inhibition of human Mo-T cell growth in a cell viability assay.
# TE-11 = type: functional, cell-based; details: Homo sapiens;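 note: growth inhibition of human TE-11 cells, read out by a cell viability assay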
# Description: SANGER: Inhibition of human TE-11 cell growth in a cell viability assay.
# ES7 = type: functional, cell-based, Homo sapiens; details: Homo sapiens, ES7;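 note: growth inhibition of cultured human ES7 cells, read out as cell viability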
# Description: SANGER: Inhibition of human ES7 cell growth in a cell viability assay.
# ES5 = type: functional, cell-based, Homo sapiens; details: Homo sapiens, ES5;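 note: growth inhibition of human ES5 cells, read out by a cell viability assay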
# Description: SANGER: Inhibition of human ES5 cell growth in a cell viability assay.
# GB-1 = type: functional, cell-based, Homo sapiens; details: Homo sapiens, GB-1;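 note: growth of GB-1 cells judged by a viability assay, IC50 marks the concentration inhibiting growth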
# Description: SANGER: Inhibition of human GB-1 cell growth in a cell viability assay.
# BV-173 = type: functional, cell-based, Homo sapiens; details: Homo sapiens, BV-173
# Description: SANGER: Inhibition of human BV-173 cell growth in a cell viability assay.
# NCI-H747 = type: functional, cell-based, Homo sapiens; details: Homo sapiens, NCI-H747;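 note: growth inhibition of human NCI-H747 cells, read out by a cell viability assay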
# Description: SANGER: Inhibition of human NCI-H747 cell growth in a cell viability assay.
# 8-MG-BA = type: functional, cell-based, Homo sapiens; details: Homo sapiens, 8-MG-BA;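 note: growth inhibition of 8-MG-BA cells, read out with a cell viability assay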
# Description: SANGER: Inhibition of human 8-MG-BA cell growth in a cell viability assay.
# MHH-NB-11 = type: functional, cell-based, Homo sapiens; details: Homo sapiens, MHH-NB-11;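 note: growth inhibition of human MHH-NB-11 cells, read out by a cell viability assay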
# Description: SANGER: Inhibition of human MHH-NB-11 cell growth in a cell viability assay.
# D-263MG = type: functional, cell-based, Homo sapiens; details: Homo sapiens, D-263MG
# Description: SANGER: Inhibition of human D-263MG cell growth in a cell viability assay.
# DSH1 = type: functional, cell-based; details: Homo sapiens;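 note: growth inhibition of human DSH1 cells, measured with a cell viability readout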
# Description: SANGER: Inhibition of human DSH1 cell growth in a cell viability assay.
# LS-513 = type: functional, cell-based, Homo sapiens; details: Homo sapiens, LS-513
# Description: SANGER: Inhibition of human LS-513 cell growth in a cell viability assay.
# EW-13 = type: functional, cell-based, Homo sapiens; details: Homo sapiens, EW-13; read-out: IC50;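 note: growth inhibition of EW-13 cells, read out with a cell viability assay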
# Description: SANGER: Inhibition of human EW-13 cell growth in a cell viability assay.
# NCI-H1650 = type: functional, cell-based, Homo sapiens; details: Homo sapiens, NCI-H1650;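 note: growth inhibition of human NCI-H1650 cells measured by a cell viability assay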
# Description: SANGER: Inhibition of human NCI-H1650 cell growth in a cell viability assay.
# JVM-3 = type: functional, cell-based, Homo sapiens; details: Homo sapiens, JVM-3;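 note: growth inhibition of human JVM-3 cells, read out with a cell viability assay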
# Description: SANGER: Inhibition of human JVM-3 cell growth in a cell viability assay.
# SW872 = type: functional, cell-based, Homo sapiens; details: Homo sapiens, SW872;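 note: growth inhibition of SW872 cells, read out by a viability assay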
# Description: SANGER: Inhibition of human SW872 cell growth in a cell viability assay.
# HH = type: functional, cell-based, Homo sapiens; details: Homo sapiens, HH
# Description: SANGER: Inhibition of human HH cell growth in a cell viability assay.
# JVM-2 = type: functional, cell-based, Homo sapiens; details: Homo sapiens, JVM-2;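 note: growth inhibition of JVM-2 cells determined by a cell viability assay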
# Description: SANGER: Inhibition of human JVM-2 cell growth in a cell viability assay.
# SF-539 = type: functional, cell-based, Homo sapiens; details: Homo sapiens, SF-539;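 note: Read-out is a cell viability assay, with IC50 reflecting inhibition of cell growth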
# Description: SANGER: Inhibition of human SF539 cell growth in a cell viability assay.
# LB996-RCC = type: functional, cell-based, Homo sapiens; details: Homo sapiens, LB996-RCC
# Description: SANGER: Inhibition of human LB996-RCC cell growth in a cell viability assay.
# COLO-320-HSR = type: functional, cell-based, Homo sapiens; details: Homo sapiens, COLO-320-HSR;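 note: growth inhibition of COLO-320-HSR cells, determined with a cell viability assay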
# Description: SANGER: Inhibition of human COLO-320-HSR cell growth in a cell viability assay.
# ES8 = type: functional, cell-based, Homo sapiens; details: Homo sapiens, ES8;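 note: growth inhibition of human ES8 cells, read out with a cell viability assay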
# Description: SANGER: Inhibition of human ES8 cell growth in a cell viability assay.
# MEG-01 = type: functional, cell-based, Homo sapiens; details: Homo sapiens, MEG-01;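 note: growth inhibition of MEG-01 cells, read out by a cell viability assay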
# Description: SANGER: Inhibition of human MEG-01 cell growth in a cell viability assay.
# ML-2 = type: functional, cell-based, Homo sapiens; details: Homo sapiens, ML-2;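 note: growth inhibition of ML-2 cells, measured with a cell viability readout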
# Description: SANGER: Inhibition of human ML-2 cell growth in a cell viability assay.
# HL-60 = type: functional, cell-based, Homo sapiens; details: Homo sapiens, HL-60;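 note: growth inhibition of human HL-60 cells, read out with a cell viability assay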
# Description: SANGER: Inhibition of human HL-60 cell growth in a cell viability assay.
# TE-12 = type: functional, cell-based, Homo sapiens; details: Homo sapiens, TE-12;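 note: growth inhibition of TE-12 cells, read out by a cell viability assay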
# Description: SANGER: Inhibition of human TE-12 cell growth in a cell viability assay.
# LU-134-A = type: functional, cell-based, Homo sapiens; details: Homo sapiens, LU-134-A
# Description: SANGER: Inhibition of human LU-134-A cell growth in a cell viability assay.
# KG-1 = type: functional, cell-based, Homo sapiens; details: Homo sapiens, KG-1;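 note: growth inhibition of KG-1 cells, read out by a cell viability assay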
# Description: SANGER: Inhibition of human KG-1 cell growth in a cell viability assay.
# MZ7-mel = type: functional, cell-based, Homo sapiens; details: Homo sapiens, MZ7-mel;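 note: growth inhibition of human MZ7-mel cells, measured by a cell viability assay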
# Description: SANGER: Inhibition of human MZ7-mel cell growth in a cell viability assay.
# NCI-H226 = type: functional, cell-based, Homo sapiens; details: Homo sapiens, NCI-H226;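 note: cell viability read-out used to gauge growth inhibition of the cells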
# Description: SANGER: Inhibition of human NCI-H226 cell growth in a cell viability assay.
# NH-12 = type: functional, cell-based, Homo sapiens; details: Homo sapiens, NH-12;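 note: growth inhibition of NH-12 cells, read out with a cell viability assay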
# Description: SANGER: Inhibition of human NH-12 cell growth in a cell viability assay.
# KE-37 = type: functional, cell-based, Homo sapiens; details: Homo sapiens, KE-37;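 note: growth inhibition of KE-37 cells, read out with a cell viability assay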
# Description: SANGER: Inhibition of human KE-37 cell growth in a cell viability assay.
# KINGS-1 = type: functional, cell-based, Homo sapiens; details: Homo sapiens, KINGS-1;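 note: cell viability assay measuring suppression of KINGS-1 cell growth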
# Description: SANGER: Inhibition of human KINGS-1 cell growth in a cell viability assay.
# PSN1 = type: functional, cell-based, Homo sapiens; details: Homo sapiens, PSN1;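 note: suppression of growth of human PSN1 cells, read out by a cell viability assay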
# Description: SANGER: Inhibition of human PSN1 cell growth in a cell viability assay.
# NTERA-2-cl-D1 = type: functional, cell-based, Homo sapiens; details: Homo sapiens, NTERA-2-cl-D1;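 note: inhibition of cell growth, measured with a cell viability assay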
# Description: SANGER: Inhibition of human NTERA-S-cl-D1 cell growth in a cell viability assay.
# KGN = type: functional, cell-based, Homo sapiens; details: Homo sapiens, KGN;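 note: growth inhibition of KGN cells, read out with a cell viability assay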
# Description: SANGER: Inhibition of human KGN cell growth in a cell viability assay.
# KU812 cell line = type: functional, cell-based, Homo sapiens; details: Homo sapiens, KU812;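 note: growth inhibition of KU812 cells, read out with a cell viability assay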
# Description: SANGER: Inhibition of human KU812 cell growth in a cell viability assay.
# KARPAS-299 = type: functional, cell-based, Homo sapiens; details: Homo sapiens, KARPAS-299
# Description: SANGER: Inhibition of human KARPAS-299 cell growth in a cell viability assay.
smiles,measurement,setting,value
C/C(=C\c1csc(C)n1)[C@@H]1C[C@@H]2O[C@]2(C)CCC[C@H](C)[C@H](O)[C@@H](C)C(=O)C(C)(C)[C@@H](O)CC(=O)O1 [PATUPILONE],IC50,HCC2157,1.28 nM
same,IC50,Ramos-2G6-4C10,9.62 nM
same,IC50,CCRF-CEM,2.94 nM
same,IC50,NOMO-1,8.55 nM
same,IC50,NOS-1,2.72 nM
same,IC50,ES6,11.2 nM
same,IC50,SNU1,> 32 nM
same,IC50,LOX IMVI,> 32 nM
same,IC50,TE-9,1.57 nM
same,IC50,QIMR-WIL,1.19 nM
same,IC50,KLE,> 32 nM
same,IC50,OS-RC-2,1.21 nM
same,IC50,Mo,> 32 nM
same,IC50,TE-11,1.2 nM
same,IC50,ES7,5.87 nM
same,IC50,ES5,> 32 nM
same,IC50,GB-1,1.19 nM
same,IC50,BV-173,> 32 nM
same,IC50,NCI-H747,2.54 nM
same,IC50,8-MG-BA,4.78 nM
same,IC50,MHH-NB-11,15.2 nM
same,IC50,D-263MG,> 32 nM
same,IC50,DSH1,> 32 nM
same,IC50,LS-513,> 32 nM
same,IC50,EW-13,0.903 nM
same,IC50,NCI-H1650,9.54 nM
same,IC50,JVM-3,> 32 nM
same,IC50,SW872,0.774 nM
same,IC50,HH,9.8 nM
same,IC50,JVM-2,> 32 nM
same,IC50,SF-539,2.27 nM
same,IC50,LB996-RCC,6.03 nM
same,IC50,COLO-320-HSR,5.21 nM
same,IC50,ES8,1.65 nM
same,IC50,MEG-01,1.53 nM
same,IC50,ML-2,2.46 nM
same,IC50,HL-60,5 nM
same,IC50,TE-12,5.47 nM
same,IC50,LU-134-A,15.8 nM
same,IC50,KG-1,5.1 nM
same,IC50,MZ7-mel,17.1 nM
same,IC50,NCI-H226,> 32 nM
same,IC50,NH-12,0.891 nM
same,IC50,KE-37,1.91 nM
same,IC50,KINGS-1,> 32 nM
same,IC50,PSN1,0.173 nM
same,IC50,NTERA-2-cl-D1,0.718 nM
same,IC50,KGN,0.617 nM
same,IC50,KU812 cell line,3.45 nM
same,IC50,KARPAS-299,> 32 nM
C=CC(=O)N1CCCC(Nc2nc(Nc3ccc(N(C)C(=O)CC)cc3)nc3[nH]cnc23)C1 (stereo not given),IC50,HCC2157,> 10200 nM
same,IC50,Ramos-2G6-4C10,> 10200 nM
same,IC50,CCRF-CEM,> 10200 nM
same,IC50,NOMO-1,> 10200 nM
same,IC50,NOS-1,> 10200 nM
same,IC50,ES6,> 10200 nM
same,IC50,SNU1,> 10200 nM
same,IC50,LOX IMVI,> 10200 nM
same,IC50,TE-9,> 10200 nM
same,IC50,QIMR-WIL,> 10200 nM
same,IC50,KLE,> 10200 nM
same,IC50,OS-RC-2,> 10200 nM
same,IC50,Mo,> 10200 nM
same,IC50,TE-11,> 10200 nM
same,IC50,ES7,> 10200 nM
same,IC50,ES5,> 10200 nM
same,IC50,GB-1,> 10200 nM
same,IC50,BV-173,> 10200 nM
same,IC50,NCI-H747,> 10200 nM
same,IC50,8-MG-BA,> 10200 nM
same,IC50,MHH-NB-11,> 10200 nM
same,IC50,D-263MG,> 10200 nM
same,IC50,DSH1,> 10200 nM
same,IC50,LS-513,> 10200 nM
same,IC50,EW-13,> 10200 nM
same,IC50,NCI-H1650,> 10200 nM
same,IC50,JVM-3,> 10200 nM
same,IC50,SW872,> 10200 nM
same,IC50,HH,> 10200 nM
same,IC50,JVM-2,> 10200 nM
same,IC50,SF-539,> 10200 nM
same,IC50,LB996-RCC,> 10200 nM
same,IC50,COLO-320-HSR,> 10200 nM
same,IC50,ES8,> 10200 nM
same,IC50,MEG-01,> 10200 nM
same,IC50,ML-2,> 10200 nM
same,IC50,HL-60,> 10200 nM
same,IC50,TE-12,2350 nM
same,IC50,LU-134-A,> 10200 nM
same,IC50,KG-1,> 10200 nM
same,IC50,MZ7-mel,> 10200 nM
same,IC50,NCI-H226,> 10200 nM
same,IC50,NH-12,> 10200 nM
same,IC50,KE-37,> 10200 nM
same,IC50,KINGS-1,> 10200 nM
same,IC50,PSN1,> 10200 nM
same,IC50,NTERA-2-cl-D1,> 10200 nM
same,IC50,KGN,> 10200 nM
same,IC50,KU812 cell line,> 10200 nM
same,IC50,KARPAS-299,> 10200 nM
